For four compounds, Ki results are on record in ChEMBL document CHEMBL1126861 (J Med Chem, 1993).

SMILES strings stand for the structures. Where a SMILES comes first, the peptide text is derived from it.

One experiment addresses Mu-type opioid receptor (Rattus norvegicus, UniProt P33535). Description: Tested for binding affinity against mu opioid receptor fby displacing [3H]- DAMGO radioligand from rat brain membrane preparations.
Experiment [1] addresses Delta-type opioid receptor (Rattus norvegicus, UniProt P33533). Description: Tested for binding affinity against delta opioid receptor by displacing [3H]- DSLET radioligand from rat brain membrane preparations.

Delta-type opioid receptor, sequence (P33533 whole entry): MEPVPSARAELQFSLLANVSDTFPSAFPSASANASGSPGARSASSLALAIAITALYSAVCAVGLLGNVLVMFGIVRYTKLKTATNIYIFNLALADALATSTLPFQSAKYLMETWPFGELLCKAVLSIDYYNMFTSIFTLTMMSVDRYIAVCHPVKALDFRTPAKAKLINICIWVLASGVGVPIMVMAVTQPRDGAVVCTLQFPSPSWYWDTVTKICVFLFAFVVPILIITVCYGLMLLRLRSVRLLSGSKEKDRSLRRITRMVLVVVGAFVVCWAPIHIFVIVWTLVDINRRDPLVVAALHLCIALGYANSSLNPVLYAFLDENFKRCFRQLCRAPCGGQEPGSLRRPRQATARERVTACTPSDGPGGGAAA
Mu-type opioid receptor, sequence (P33535 whole entry): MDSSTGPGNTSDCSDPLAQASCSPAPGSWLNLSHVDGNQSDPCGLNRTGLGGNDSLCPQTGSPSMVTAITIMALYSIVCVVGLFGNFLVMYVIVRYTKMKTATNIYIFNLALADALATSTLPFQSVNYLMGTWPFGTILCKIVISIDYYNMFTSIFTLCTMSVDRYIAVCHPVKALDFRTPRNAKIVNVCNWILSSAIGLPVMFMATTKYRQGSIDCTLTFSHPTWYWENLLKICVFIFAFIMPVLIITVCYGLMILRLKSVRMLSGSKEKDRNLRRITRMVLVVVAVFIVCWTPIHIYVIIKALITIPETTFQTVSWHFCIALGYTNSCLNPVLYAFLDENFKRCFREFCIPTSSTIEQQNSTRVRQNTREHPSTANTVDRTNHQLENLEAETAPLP

As for `N[C@@H](Cc1ccc(O)cc1)C(=O)N1Cc2ccccc2C[C@H]1C(=O)N[C@@H](Cc1ccccc1)C(=O)N[C@@H](Cc1ccccc1)C(=O)O` (HELM PEPTIDE1{Y.[Tic].F.F}$$$$V2.0), the values for the Ki (on Mu-type opioid receptor; in experiment [1]) were 3230 nM and 0.308 nM, respectively.

For the compound `N[C@@H](Cc1ccc(O)cc1)C(=O)N1Cc2ccccc2C[C@H]1C(=O)N[C@@H](Cc1ccccc1)C(=O)O` (HELM PEPTIDE1{Y.[Tic].F}$$$$V2.0), the Ki (in general, the equilibrium dissociation constant of an inhibitor or competing ligand from its target) in experiment [1] is 1.94 nM.

With `CC(C)[C@H](NC(=O)[C@H](CC(=O)O)NC(=O)[C@H](Cc1ccccc1)NC(=O)[C@@H](C)NC(=O)[C@@H](N)Cc1ccc(O)cc1)C(=O)N[C@H](C(=O)NCC(N)=O)C(C)C` [DELTORPHIN C], the inhibition constant Ki at Mu-type opioid receptor came to 3930 nM; in experiment [1], 6.43 nM.

In experiment [1], `Oc1ccc2c3c1O[C@H]1c4[nH]c5ccccc5c4C[C@@]4(O)[C@@H](C2)N(CC2CC2)CC[C@]314` [NALTRINDOLE] returned a Ki of 0.182 nM.
